Assay results reported in article PMC6171417, “Carbonic anhydrase inhibition with a series of novel benzenesulfonamide-triazole conjugates” (Journal of Enzyme Inhibition and Medicinal Chemistry, 2018).

Key:
Experiment in all cases: cells
CCRF-CEM = system: CCRF-CEM; design: species or system NCI human tumour cell line panel; settings: Homo sapiens, CCRF-CEM; growth inhibition (GI%), single dose
SK-MEL-28 = system: SK-MEL-28; design: species or system NCI human tumour cell line panel; NCI one-dose anti-proliferative screen, human tumour cell line panel, growth inhibition percent (GI%); settings: Homo sapiens, SK-MEL-28; growth inhibition (GI%), single dose
DU-145 = system: DU-145; design: species or system NCI human tumour cell line panel; NCI one-dose anti-proliferative screen, human tumour cell line panel, growth inhibition percent (GI%); settings: Homo sapiens, DU-145; growth inhibition (GI%), single dose
786-0 = system: 786-0; design: species or system NCI human tumour cell line panel; NCI one-dose anti-proliferative screen, human tumour cell line panel, growth inhibition percent (GI%); settings: Homo sapiens, 786-0; growth inhibition (GI%), single dose
NCI-H460 = system: NCI-H460; design: species or system NCI human tumour cell line panel; NCI one-dose anti-proliferative screen, human tumour cell line panel, growth inhibition percent (GI%); settings: Homo sapiens, NCI-H460; growth inhibition (GI%), single dose
OVCAR-5 = system: OVCAR-5; design: species or system NCI human tumour cell line panel; NCI one-dose anti-proliferative screen, human tumour cell line panel, growth inhibition percent (GI%); settings: Homo sapiens, OVCAR-5; growth inhibition (GI%), single dose
RXF 393 = system: RXF 393; design: species or system NCI human tumour cell line panel; NCI one-dose anti-proliferative screen, human tumour cell line panel, growth inhibition percent (GI%); settings: Homo sapiens, RXF 393; growth inhibition (GI%), single dose

N#Cc1nnn(-c2ccc(S(N)(=O)=O)cc2)c1NC(=O)CCl [compound 5, 5]
inhibition at 10 µM (CCRF-CEM): 11.3%

CCn1c(=S)[nH]c2c(nnn2-c2ccc(S(N)(=O)=O)cc2)c1=N [compound 20, 4-(6-ethyl-7-imino-5-thioxo-4,5,6,7-tetrahydro-3H-[1,2,3]triazolo[4,5-d]pyrimidin-3-yl)benzenesulfonamide]
inhibition at 10 µM (SK-MEL-28): 0%

N#Cc1nnn(-c2ccc(S(N)(=O)=O)cc2)c1/N=C/c1ccc(Cl)cc1 [compound 9, 9]
inhibition at 10 µM (DU-145): 1% | inhibition at 10 µM (786-0): 6.1%

CN(C)c1ccc(-c2nc3c(nnn3-c3ccc(S(N)(=O)=O)cc3)c(N)c2C#N)cc1 [compound 17, 4-(7-amino-6-cyano-5-(4-(dimethylamino)phenyl)-3H-[1,2,3]triazolo[4,5-b]pyridin-3-yl)benzenesulfonamide]
inhibition at 10 µM (NCI-H460): 0.9% | inhibition at 10 µM (OVCAR-5): 3.4%

N#Cc1c(-c2ccc(Cl)cc2)nc2c(nnn2-c2ccc(S(N)(=O)=O)cc2)c1N [compound 16, 4-(7-amino-5-(4-chlorophenyl)-6-cyano-3H-[1,2,3]triazolo[4,5-b]pyridin-3-yl)benzenesulfonamide]
inhibition at 10 µM (RXF 393): 17.8%
